Numbers after ± are expanded uncertainties.
Legend:
[1] = xn = mol fraction of the nth substance listed; conditions: Wilhelmy plate method
[2] = refractive index (Na D-line) (dimensionless); xn = mol fraction of the nth substance listed; conditions: 100.5 kPa, Liquid, Standard Abbe refractometry

CCOC(=O)CC(C)=O [ethyl 3-oxobutanoate] + CCO
Conditions	refractive index, 288.15 K	refractive index, 298.18 K	refractive index, 308.15 K	refractive index, 318.15 K	surface tension liquid-gas, 288.15 K [mN/m]	surface tension liquid-gas, 298.18 K [mN/m]	surface tension liquid-gas, 308.15 K [mN/m]	surface tension liquid-gas, 318.15 K [mN/m]
[1], x1 = 0.05	–	–	–	–	23.53 ± 0.4	22.77 ± 0.4	21.91 ± 0.4	20.98 ± 0.4
[1], x1 = 0.1	–	–	–	–	24.1 ± 0.4	23.31 ± 0.4	22.42 ± 0.4	21.46 ± 0.4
[1], x1 = 0.15	–	–	–	–	24.65 ± 0.4	23.83 ± 0.4	22.91 ± 0.4	21.94 ± 0.4
[1], x1 = 0.2	–	–	–	–	25.22 ± 0.4	24.38 ± 0.4	23.42 ± 0.4	22.43 ± 0.4
[1], x1 = 0.25	–	–	–	–	25.77 ± 0.4	24.89 ± 0.4	23.9 ± 0.4	22.9 ± 0.4
[1], x1 = 0.3	–	–	–	–	26.28 ± 0.4	25.38 ± 0.4	24.38 ± 0.4	23.37 ± 0.4
[1], x1 = 0.35	–	–	–	–	26.78 ± 0.4	25.88 ± 0.4	24.84 ± 0.4	23.83 ± 0.4
[1], x1 = 0.4	–	–	–	–	27.28 ± 0.4	26.36 ± 0.4	25.32 ± 0.4	24.3 ± 0.4
[1], x1 = 0.45	–	–	–	–	27.8 ± 0.4	26.86 ± 0.4	25.81 ± 0.4	24.79 ± 0.4
[1], x1 = 0.5	–	–	–	–	28.35 ± 0.41	27.4 ± 0.4	26.32 ± 0.4	25.29 ± 0.4
[1], x1 = 0.55	–	–	–	–	28.92 ± 0.41	27.96 ± 0.41	26.84 ± 0.41	25.8 ± 0.41
[1], x1 = 0.6	–	–	–	–	29.46 ± 0.41	28.52 ± 0.41	27.38 ± 0.41	26.31 ± 0.41
[1], x1 = 0.65	–	–	–	–	30.02 ± 0.41	29.04 ± 0.41	27.9 ± 0.41	26.81 ± 0.41
[1], x1 = 0.7	–	–	–	–	30.54 ± 0.41	29.55 ± 0.41	28.4 ± 0.41	27.3 ± 0.41
[1], x1 = 0.75	–	–	–	–	31.05 ± 0.41	30.06 ± 0.41	28.89 ± 0.41	27.78 ± 0.41
[1], x1 = 0.8	–	–	–	–	31.53 ± 0.41	30.54 ± 0.41	29.36 ± 0.41	28.24 ± 0.41
[1], x1 = 0.85	–	–	–	–	32.02 ± 0.42	31.01 ± 0.41	29.81 ± 0.41	28.7 ± 0.41
[1], x1 = 0.9	–	–	–	–	32.47 ± 0.42	31.46 ± 0.42	30.26 ± 0.42	29.14 ± 0.41
[1], x1 = 0.95	–	–	–	–	32.91 ± 0.42	31.89 ± 0.42	30.68 ± 0.42	29.56 ± 0.42
[1], x1 = 1	–	–	–	–	33.3 ± 0.42	32.3 ± 0.42	31.1 ± 0.42	30 ± 0.42
[2], x1 = 0.05	1.3696 ± 0.0003	1.3654 ± 0.0003	1.3612 ± 0.0003	1.3572 ± 0.0003	–	–	–	–
[2], x1 = 0.1	1.3751 ± 0.0003	1.3709 ± 0.0003	1.3666 ± 0.0003	1.3625 ± 0.0003	–	–	–	–
[2], x1 = 0.15	1.38 ± 0.0003	1.3757 ± 0.0003	1.3714 ± 0.0003	1.3672 ± 0.0003	–	–	–	–
[2], x1 = 0.2	1.3843 ± 0.0003	1.3801 ± 0.0003	1.3758 ± 0.0003	1.3715 ± 0.0003	–	–	–	–
[2], x1 = 0.25	1.3882 ± 0.0003	1.384 ± 0.0003	1.3797 ± 0.0003	1.3755 ± 0.0003	–	–	–	–
[2], x1 = 0.3	1.3918 ± 0.0003	1.3876 ± 0.0003	1.3833 ± 0.0003	1.379 ± 0.0003	–	–	–	–
[2], x1 = 0.35	1.3951 ± 0.0003	1.3908 ± 0.0003	1.3866 ± 0.0003	1.3823 ± 0.0003	–	–	–	–
[2], x1 = 0.4	1.3981 ± 0.0003	1.3938 ± 0.0003	1.3896 ± 0.0003	1.3852 ± 0.0003	–	–	–	–
[2], x1 = 0.45	1.4009 ± 0.0003	1.3965 ± 0.0003	1.3923 ± 0.0003	1.388 ± 0.0003	–	–	–	–
[2], x1 = 0.5	1.4034 ± 0.0003	1.3991 ± 0.0003	1.3949 ± 0.0003	1.3905 ± 0.0003	–	–	–	–
[2], x1 = 0.55	1.4058 ± 0.0003	1.4014 ± 0.0003	1.3972 ± 0.0003	1.3928 ± 0.0003	–	–	–	–
[2], x1 = 0.6	1.4079 ± 0.0003	1.4036 ± 0.0003	1.3994 ± 0.0003	1.395 ± 0.0003	–	–	–	–
[2], x1 = 0.65	1.41 ± 0.0003	1.4056 ± 0.0003	1.4014 ± 0.0003	1.397 ± 0.0003	–	–	–	–
[2], x1 = 0.7	1.4119 ± 0.0003	1.4075 ± 0.0003	1.4033 ± 0.0003	1.3989 ± 0.0003	–	–	–	–
[2], x1 = 0.75	1.4137 ± 0.0003	1.4093 ± 0.0003	1.4051 ± 0.0003	1.4007 ± 0.0003	–	–	–	–
[2], x1 = 0.8	1.4154 ± 0.0003	1.4111 ± 0.0003	1.4069 ± 0.0003	1.4024 ± 0.0003	–	–	–	–
[2], x1 = 0.85	1.417 ± 0.0003	1.4126 ± 0.0003	1.4084 ± 0.0003	1.404 ± 0.0003	–	–	–	–
[2], x1 = 0.9	1.4184 ± 0.0003	1.4141 ± 0.0003	1.4099 ± 0.0003	1.4054 ± 0.0003	–	–	–	–
[2], x1 = 0.95	1.4198 ± 0.0004	1.4154 ± 0.0004	1.4112 ± 0.0004	1.4068 ± 0.0004	–	–	–	–
[2], x1 = 1	1.4209 ± 0.0004	1.4166 ± 0.0004	1.4125 ± 0.0004	1.408 ± 0.0004	–	–	–	–

— the NIST ThermoML archive (doi:10.1021/je060139a)
